These results are taken from patent US20040105907A1, “Anti-inflammatory effects of the partially purified extract of radix stephaniae tetrandrae” (priority 2002, published 2004).

What all share (format): cell-based
One series relates to neutrophils. In words: Cell viability / cytotoxicity by propidium iodide exclusion assay. Particulars: 10 μg/ml, drug alone, 1 h incubation. The method, then: FIG. 17. Effects of Fan, Tet or SPRST on cell viability. Cell viability was measured by a propidium iodide exclusion assay. After incubation of cells (2×10^6/ml) with SPRST or test drugs for 1 h, cell suspension was further incubated with propidium iodide (10 μg/ml) and fluorescein diacetate (100 ng/ml) at room temperature for 10 min. Cell suspension was analyzed immediately on a flow cytometer (FACSCalibur™; Becton Dickinson) by recording forward and light scatter, red (>630 nm) and green (520 nm) fluorescence. […] Cell viability (%) was calculated by the CellQuest® software (Becton Dickinson) on a Power Macintosh 7300/200 computer. […]
Estimation of cell viability. Cell viability was determined according to Ormerod's method (Ormerod, M. G., 2000. Further applications to cell biology. In: Ormerod, M. G (Ed.), Flow cytometry, Third edition. Oxford University Press, UK, pp. 249-250) after incubation of, cells (2×10^6/ml) with test drugs for 1 h in 5-ml polystyrene round-bottomed tube (FALCON, Becton Dicson). […] After incubation with test drugs, cells suspension were further incubated with propidium iodide and fluorescein diacetate at room temperature for 10 min and analyzed immediately on a flow cytometer (FACSCalibur™; Becton Dickinson) by recording forward and light scatter, red (>630 nm) and green (520 nm) fluorescence. […]

Series [1] has as its system human neutrophils. In words: fMLP- or LTB4-induced intracellular calcium concentration ([Ca2+]i), fura-2. The conditions noted are these: 500 ng/ml pretreatment, 2 hrs.
Method: Neutrophils (2×10^6/ml) were preloaded with fura 2-AM (5 μM) at 37° C. for 45 min and washed twice with HBSS (calcium free). […] For G-protein study, sample was pretreated with 500 ng/ml of pertussis toxin (PTX) at 37° C. for 2 hrs. Samples were gentle mixed with a micromagnetic stirrer at 37° C. for 5 min before addition of 1 μM of fMLP. [Ca^2+]i was measured on a spectrofluorometer as described in Materials and Methods. Net increase in [Ca^2+]i was calculated by subtracting control values from respective experimental values (control [Ca^2+]i in resting cell was 108±16 nM).
Neutrophils (2×10^6/ml) were preloaded with fura 2-AM (5 μM) at 37° C. for 45 min and washed twice with HBSS (calcium free). […] For G-protein study, sample was pretreated with 500 ng/ml of pertussis toxin (PTX) at 37° C. for 2 hrs. […] [Ca^2+]i was measured on a spectrofluorometer as described in Materials and Methods. Net increase in [Ca^2+]i was calculated by subtracting control values from respective experimental values (control [Ca^2+]i in resting cell was 108±16 nM). […]
Where: K=224 nM (Fura-2 at 37° C.), Rmin=ratio value in minimal Ca^2+ conditions, Rmax=ratio value at a maximal Ca^2+ concentration, Sf380=380 nm reading in minimal Ca^2+ conditions (corrected for background), Sb380 =380 nm reading in maximal Ca^2+ conditions (corrected for background). […]
Series [2] relates to human neutrophils. In words: AlF4−-induced (direct G protein activation) [Ca2+]i increment. The conditions noted are these: 500 ng/ml pretreatment, 2 hrs.
Method: Effects of SPRST, Tet, or Fan on AlF4^−-induced changes in intracellular calcium concentration ([Ca^2+]i). Fura 2-AM or BCECF-AM labeled-neutrophils were pretreated with 5-10 μg/ml of SPRST or other chemicals at 37° C. for 10 min. For G-protein study, sample was pretreated with 500 ng/ml of pertussis toxin (PTX) at 37° C. for 2 hrs before the addition of AlF4^− (10 mM NaF plus 10 μM AlCl3), a direct G-protein activator. AlF4^−-induced changes in [Ca^2+]i were measured as described in Materials and Methods. […] Values are mean±S.E.M. (n=5). *P<0.05, as compared to samples receiving AlF4^− alone for [Ca^2+]i and neutrophil adhesion, respectively. […]
Where: K=224 nM (Fura-2 at 37° C.), Rmin=ratio value in minimal Ca^2+ conditions, Rmax=ratio value at a maximal Ca^2+ concentration, Sf380=380 nm reading in minimal Ca^2+ conditions (corrected for background), Sb380 =380 nm reading in maximal Ca^2+ conditions (corrected for background). Rmax and Sb380 were obtained at the end of a measurement by permeabilizing the cells with 0.2% digitonin, where Rmin and Sf380 were determined by adding 20 mM EGTA after digitonin lysis.
Series [3] concerns human neutrophils. In words: AlF4−-induced neutrophil firm adhesion. The conditions noted are these: 500 ng/ml pretreatment, 2 hrs.
Method: Effects of SPRST, Tet, or Fan on AlF4^−-induced changes in neutrophil adhesion. Fura 2-AM or BCECF-AM labeled-neutrophils were pretreated with 5-10 μg/ml of SPRST or other chemicals at 37° C. for 10 min. For G-protein study, sample was pretreated with 500 ng/ml of pertussis toxin (PTX) at 37° C. for 2 hrs before the addition of AlF4^− (10 mM NaF plus 10 μM AlCl3), a direct G-protein activator. AlF4^−-induced neutrophil adhesion were measured as described in Materials and Methods.
Measurement of Neutrophil Firm Adhesion. Adhesion of neutrophils to extracellular matrix was determined in 24-well tissue culture plates (FALCON®, NJ, USA) coated with fibrinogen as our previous study (Shen et al., 1999). Prior to the addition of neutrophils, the plates were incubated with 250 μl per well of human fibrinogen (50 pg/ml in PBS; Chemicon International, Inc., CA) for 2 hrs at 37° C. The wells were washed once with HBSS, blocked with 1% BSA (Sigma, USA) in HBSS for 1 hr at 37° C., and washed twice with HBSS containing 0.1% Tween-20 (Sigma, USA) and once with HBSS. […] Adherent neutrophils were then determined by measuring the fluorescence with a fluorescent plate reader (Cytofluor 2300, Millipore®) with excitation at 485 nm and emission at 530 nm. Data are expressed as fluorescence intensity.

With `COc1ccc2cc1Oc1ccc(cc1)C[C@H]1c3cc(c(OC)cc3CCN1C)Oc1c(O)c(OC)cc3c1[C@H](C2)N(C)CC3` [Fan, fangchinoline], the “cytotoxic effect (dead cells)” value with neutrophils turned out to be 0.84±0.11%.

Turning to `COc1ccc2cc1Oc1ccc(cc1)C[C@H]1c3cc(c(OC)cc3CCN1C)Oc1c(OC)c(OC)cc3c1[C@H](C2)N(C)CC3` [Tet, tetrandrine], in the series on neutrophils, the “cytotoxic effect (dead cells)” value was determined as 1.24±0.17%.

For pertussis toxin [PTX], in the series with human neutrophils [1], the “inhibition of fMLP- or LTB4-triggered rapid increase in [Ca2+]i” value is on record as “abolished”. The “AlF4−-induced [Ca2+]i increment” value in the series on human neutrophils [2] is on record as “significantly inhibited”. Also, in the series with human neutrophils [3], the “AlF4−-induced neutrophil firm adhesion” value was “significantly inhibited”.
